From ChEMBL document CHEMBL4219170, “Design, synthesis and biological evaluation of anti-pancreatic cancer activity of plinabulin derivatives based on the co-crystal structure” (Bioorg Med Chem, 2018)
≈ marks a conversion by molar mass, not a printed value. Calls of active or inactive are those of the source. The rule behind the calls is not given here.

What was measured:
[1] = Solubility of the compound in water after 24 hrs by HPLC analysis; assay type: physicochemical
[2] = test system: BXPC-3; assay: Antiproliferative activity against human BxPC3 cells after 72 hrs by sulforhodamine B assay; assay type: functional, cell-based; settings: BXPC-3, 72 h
[3] = target: Tubulin (Homo sapiens) (UniProt P68371+Q9H4B7+P0DPH7+P68366+Q13509+Q71U36+P04350+Q3ZCM7+P07437+P68363+Q9BQE3+Q6PEY2+Q13885+Q9BVA1+Q9BUF5); assay: Inhibition of tubulin polymerization (unknown origin) at 5 uM after 1 min in presence of GTP by fluorescence-based assay relative to control; assay type: protein-complex assay
[4] = test system: BXPC-3; assay: Antiproliferative activity against human BxPC3 cells at 12.5 nM after 72 hrs by MTT assay relative to control; assay type: functional
[5] = organism: Homo sapiens; assay: Inhibition of beta-tubulin polymerization in human BxPC3 cells at 5 nM after 24 hrs by DAPI staining-based fluorescence microscopic analysis; assay type: cell-based

Structure (SMILES) | solubility [1] [µg/mL] | IC50 [2] [µM] | inhibition [3] [%] | Activity [4] [%] | inhibition [5]
CC(C)(C)c1[nH]cnc1/C=c1\[nH]c(=O)/c(=C/c2cccc(C(=O)N3CCCC3)c2)[nH]c1=O | 0.454 (≈ 1.05 µM) | 0.325 | – | – | –
CC(C)(C)c1[nH]cnc1/C=c1\[nH]c(=O)/c(=C/c2cccc(C(=O)c3cccnc3)c2)[nH]c1=O | < 0.1 | 0.00405 | 28.8 | – | –
CC(C)(C)c1[nH]cnc1/C=c1\[nH]c(=O)/c(=C/c2cccc(C(=O)c3ccc[nH]3)c2)[nH]c1=O | – | > 0.1 | – | – | –
O=C(c1ccccc1)c1cccc(/C=c2\[nH]c(=O)/c(=C/c3ccccn3)[nH]c2=O)c1 | < 0.1 | 0.00627 | – | 85 | –
CC(C)(C)c1[nH]cnc1/C=c1\[nH]c(=O)/c(=C/c2cccc(C(=O)c3cccs3)c2)[nH]c1=O | < 0.1 | 0.00172 | 46.4 | – | –
CC(C)(C)c1[nH]cnc1/C=c1\[nH]c(=O)/c(=C/c2ccccc2)[nH]c1=O [PLINABULIN] | < 0.1 | 0.00428 | 18.3 | – | Active
CC(C)(C)c1[nH]cnc1/C=c1\[nH]c(=O)/c(=C/c2cccc(C(=O)c3ccccn3)c2)[nH]c1=O | < 0.1 | 0.00758 | 36.6 | – | –
CC(C)(C)c1[nH]cnc1/C=c1\[nH]c(=O)/c(=C/c2cccc(C(=O)N3CCOCC3)c2)[nH]c1=O | 1.79 (≈ 3.98 µM) | 0.257 | – | – | –
CC(C)(C)c1[nH]cnc1/C=c1\[nH]c(=O)/c(=C/c2cccc(C(=O)c3cc[nH]c3)c2)[nH]c1=O | – | > 0.1 | – | – | –
CC(C)(C)c1[nH]cnc1/C=c1\[nH]c(=O)/c(=C/c2cccc(C(=O)N3CCC3)c2)[nH]c1=O | 4.231 (≈ 10.1 µM) | > 0.5 | – | – | –
CN1CCN(C(=O)c2cccc(/C=c3\[nH]c(=O)/c(=C/c4nc[nH]c4C(C)(C)C)[nH]c3=O)c2)CC1 | 85.568 (≈ 185 µM) | > 0.5 | – | – | –
O=C(c1cccc(/C=c2\[nH]c(=O)/c(=C/c3ccccn3)[nH]c2=O)c1)N1CCC1 | 0.662 (≈ 1.77 µM) | > 0.5 | – | – | –
CC(C)(C)c1[nH]cnc1/C=c1\[nH]c(=O)/c(=C/c2cccc(C(=O)c3ccccc3)c2)[nH]c1=O | < 0.1 | – | – | – | –
CC(C)(C)c1[nH]cnc1/C=c1\[nH]c(=O)/c(=C/c2cccc(C(=O)c3ccco3)c2)[nH]c1=O | < 0.1 | 0.00923 | – | – | –
CC(C)(C)c1[nH]cnc1/C=c1\[nH]c(=O)/c(=C/c2cccc(C(=O)c3ccoc3)c2)[nH]c1=O | < 0.1 | 0.00941 | – | – | –
CN1CCN(C(=O)c2cccc(/C=c3\[nH]c(=O)/c(=C/c4ccccn4)[nH]c3=O)c2)CC1 | 16.302 (≈ 39 µM) | > 0.5 | – | – | –
CC(C)(C)c1[nH]cnc1/C=c1\[nH]c(=O)/c(=C/c2cccc(C(=O)c3ccncc3)c2)[nH]c1=O | < 0.1 | 0.0238 | 34.1 | – | –
O=C(c1cccc(/C=c2\[nH]c(=O)/c(=C/c3ccccn3)[nH]c2=O)c1)N1CCCCC1 | < 0.1 | > 0.5 | – | – | –
CC(C)(C)c1[nH]cnc1/C=c1\[nH]c(=O)/c(=C/c2cccc(C(=O)N3CCCCC3)c2)[nH]c1=O | < 0.1 | 0.1 | – | – | –
CC(C)(C)c1[nH]cnc1/C=c1\[nH]c(=O)/c(=C/c2cccc(C(=O)c3ccsc3)c2)[nH]c1=O | < 0.1 | 0.00156 | 39.3 | – | –
CC(C)(C)c1[nH]cnc1/C=c1\[nH]c(=O)/c(=C/c2cccc(C(=O)c3cncs3)c2)[nH]c1=O | < 0.1 | 0.0171 | 19.9 | – | –
